Laboratory results: paper PMC3903516 (PLoS ONE, 2014)
Changes are numbered by the printed parent chain.

Experiments:
[1] = molecular target: T1, CYP2A6*15 (Homo sapiens, UniProt P11509, K194E); test: CYP2A6 inactivation assay (fluorescence-based coumarin 7-hydroxylase assay); assay type: biochemical; conditions: pH 7.4, probe coumarin (10 µM; 7-hydroxylation), 8-MOP 1.0 µM, 10 min pre-incubation with NADPH generating system vs no pre-incubation, read-out: increased percentage in inhibition with pre-incubation
T1 construct: made in house; host or cells: E. coli (membrane fractions; pCW-CYP2A6*15 co-expressed with pACYC-OxR)
T1 sequence (P11509 1-494 K194E): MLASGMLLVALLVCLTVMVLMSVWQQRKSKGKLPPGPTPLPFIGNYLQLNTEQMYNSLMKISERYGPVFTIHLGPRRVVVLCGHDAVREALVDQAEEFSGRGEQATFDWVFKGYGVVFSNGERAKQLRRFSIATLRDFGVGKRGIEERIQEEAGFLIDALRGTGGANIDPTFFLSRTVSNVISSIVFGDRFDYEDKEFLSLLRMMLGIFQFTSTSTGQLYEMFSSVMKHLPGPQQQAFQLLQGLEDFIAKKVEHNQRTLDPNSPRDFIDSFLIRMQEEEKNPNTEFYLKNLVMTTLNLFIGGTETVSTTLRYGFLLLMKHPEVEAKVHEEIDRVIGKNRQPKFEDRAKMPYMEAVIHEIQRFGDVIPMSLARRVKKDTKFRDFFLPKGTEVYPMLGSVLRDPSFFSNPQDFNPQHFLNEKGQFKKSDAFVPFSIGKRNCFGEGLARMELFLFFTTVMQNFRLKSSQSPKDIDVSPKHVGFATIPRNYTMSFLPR
Source text: (§1) A fully functional P450 monooxygenase system requires collaboration of the CYP of interest in concert with the essential coenzyme, NADPH-CYP oxidoreductase (OxR). Here, we co-expressed the individual CYP2A6 plasmid constructs – pCW-CYP2A6, pCW-CYP2A6*15, pCW-CYP2A6*16, pCW-CYP2A6*21 or pCW-CYP2A6*22, with pACYC-OxR plasmid which allowed for OxR co-expression that was important for CYP2A6 catalytic function. Preparation of membrane fragments expressing holoenzyme protein of respective CYP2A6 construct was in accordance to the established method described previously. Membrane fractions were stored at −80°C in a 1∶1 mixture of pH 7.6 TES (100 mM Tris/0.5 mM EDTA/500 mM sucrose buffer) and ice-cold distilled water before use.
(§2) Assessment of coumarin 7-hydroxylation is a signature marker for CYP2A6 metabolic assay. To evaluate the inhibitory potency of 8-MOP on the kinetic activity of CYP2A6 variants, we adopted a fluorescence-based coumarin 7-hydroxylase assay upon minor modifications of an established protocol, [13]. […] NADPH generating system (1 mM NADP, 10 mM G6P, 2IU G6PDH and 5 mM MgCl2) in 0.1 M phosphate buffer, pH 7.4 was added subsequently to the incubation mixture to initiate the reactions. […] Enzyme inhibition reactions were allowed in 25 minutes of incubation and later terminated by 500 mM Tris base. The experimental conditions were selected such that under conditions with varying activities of CYP2A6 proteins, no more than 20% of the substrate was converted to 7-hydroxycoumarin. The fluorescent metabolite was detected by Tecan Infinite™ 200 series microplate reader (Männerdorf, Switzerland) at excitation wavelength 365 nm and emission wavelength 450 nm and further estimated based on the standard curve of 7-hydroxycoumarin which was constructed in the range of 15.63–2000 pmol/well previously (data not shown). Current assay also included control for fluorescent interference which consisted of inhibitor (at a concentration equal to the inhibition incubations) and bacterial control membranes.

[2] = molecular target: T2, CYP2A6*22 (Homo sapiens, UniProt P11509, D158E/L160I); test: as above; assay type: biochemical; conditions: pH 7.4, probe coumarin (10 µM; 7-hydroxylation), 8-MOP 1.0 µM, 10 min pre-incubation with NADPH generating system vs no pre-incubation, read-out: increased percentage in inhibition with pre-incubation
T2 construct: made in house; host or cells: E. coli (membrane fractions; pCW-CYP2A6*22 co-expressed with pACYC-OxR)
T2 sequence (P11509 1-494 D158E/L160I): T1 sequence (P11509 1-494 K194E) with D158E, L160I, E194K
Source text: as §1, §2

[3] = molecular target: T3, CYP2A6*1 (wild-type) (Homo sapiens, UniProt P11509); test: as above; assay type: biochemical; conditions: pH 7.4, probe coumarin (10 µM; 7-hydroxylation), 8-MOP 1.0 µM, 10 min pre-incubation with NADPH generating system vs no pre-incubation, read-out: increased percentage in inhibition with pre-incubation
T3 construct: made in house; host or cells: E. coli (membrane fractions; pCW-CYP2A6*1 co-expressed with pACYC-OxR)
T3 sequence (P11509 1-494): T1 sequence (P11509 1-494 K194E) with E194K
Source text: as §1, §2

[4] = molecular target: T4, CYP2A6*21 (Homo sapiens, UniProt P11509, K476R); test: as above; assay type: biochemical; conditions: pH 7.4, probe coumarin (10 µM; 7-hydroxylation), 8-MOP 1.0 µM, 10 min pre-incubation with NADPH generating system vs no pre-incubation, read-out: increased percentage in inhibition with pre-incubation
T4 construct: made in house; host or cells: E. coli (membrane fractions; pCW-CYP2A6*21 co-expressed with pACYC-OxR)
T4 sequence (P11509 1-494 K476R): T1 sequence (P11509 1-494 K194E) with E194K, K476R
Source text: as §1, §2

[5] = molecular target: T5, CYP2A6*16 (Homo sapiens, UniProt P11509, R203S); test: as above; assay type: biochemical; conditions: pH 7.4, probe coumarin (10 µM; 7-hydroxylation), 8-MOP 1.0 µM, 10 min pre-incubation with NADPH generating system vs no pre-incubation, read-out: increased percentage in inhibition with pre-incubation
T5 construct: made in house; host or cells: E. coli (membrane fractions; pCW-CYP2A6*16 co-expressed with pACYC-OxR)
T5 sequence (P11509 1-494 R203S): T1 sequence (P11509 1-494 K194E) with E194K, R203S
Source text: as §1, §2

[6] = system: CYP2A6 K476E; set-up: method as in PMID 16207711; conditions: towards coumarin; cited from earlier work
[7] = molecular target: T1, CYP2A6*15; set-up: method as in PMID 20139165; conditions: coumarin 7-hydroxylation, mean ± SD n=3; cited from earlier work
[8] = molecular target: T2, CYP2A6*22; set-up: method as in PMID 20139165; conditions: coumarin 7-hydroxylation, mean ± SD n=3; cited from earlier work
[9] = molecular target: T4, CYP2A6*21; set-up: method as in PMID 20139165; conditions: coumarin 7-hydroxylation, mean ± SD n=3; cited from earlier work
[10] = molecular target: T5, CYP2A6*16; set-up: method as in PMID 20139165; conditions: coumarin 7-hydroxylation, mean ± SD n=3; cited from earlier work
[11] = molecular target: T3, CYP2A6*1 (wild-type); set-up: method as in PMID 20139165; conditions: coumarin 7-hydroxylation, mean ± SD n=3; cited from earlier work

inhibition at 35 min, 1 µM [1] [%]	inhibition at 35 min, 1 µM [2] [%]	inhibition at 35 min, 1 µM [3] [%]	inhibition at 35 min, 1 µM [4] [%]	inhibition at 35 min, 1 µM [5] [%]	Compound	catalytic efficiency, % of the wild type kcat/Km value [6] [%]	Km [7] [µM]	Km [8] [µM]	Km [9] [µM]	Km [10] [µM]	Km [11] [µM]
32	23	35	24	31	COc1c2occc2cc2ccc(=O)oc12 [8-methoxypsoralen]	–	–	–	–	–	–
–	–	–	–	–	O=c1ccc2ccccc2o1 [coumarin]	~8	22.1 ± 1.29	31.2 ± 2.22	16.4 ± 0.41	10.5 ± 1.45	10.6 ± 1.58
